# From US5543410A, “Pharmacological use of phthaloylhydrazide derivatives; combination and application thereof” (L.I.M.A.D. Limited, priority 1993, dated 1996)
# System: toxins
structure (smiles),measurement,setting,value
Nc1cccc2c(=O)[nH][nH]c(=O)c12,time to therapeutic effect,"after administration, acute phase",twenty to thirty
same,injections sufficient for complete elimination of pathological indications,within a one-day period,one or two
